What all share (assay): NCI tumour cell line growth inhibition, 48 h
Assay [1] relates to SW-620.
Assay [2] relates to CCRF-CEM.
For assay [3], the system named is NCI-H23.
Assay [4] deals with EKVX.
Assay [5] has as its system MOLT-4.
The test system of assay [6] is HOP-92.
The subject of assay [7] is OVCAR-3.
Assay [8] relates to HCT-116.
The subject of assay [9] is SK-MEL-28.
In assay [10] the test system is UACC-62.
Assay [11] concerns NCI-H226.
Assay [12] deals with SNB-75.
Assay [13] deals with K562.
Assay [14] relates to DU-145.
The subject of assay [15] is MDA-N.
Assay [16] relates to HOP-62.
The test system of assay [17] is SF-295.
The test system of assay [18] is OVCAR-5.
The test system of assay [19] is OVCAR-8.

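1) Cells in 96-well plates. 2) Compound, 48 h, 5 concentrations. 3) Linear interpolation between surrounding doses. 4) Unreached endpoint = highest concentration. Here, GI50 denotes the concentration required for 50% inhibition of growth.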 Calls of active or inactive are those of the source. No stated cut-off is given here; in the data, active = GI50 up to about 1.1 µM and inactive = higher. Bounds are passed on as bounds.

On to `O=c1[nH]nc(-c2ccccc2)n1/N=C\c1ccccc1`, for which the GI50 in assay [1], in assay [2], in [3], in assay [4], in assay [5] and in assay [6] was > 100 µM (inactive) in each case. The GI50 in assay [7], in [8], in [9], in [10], in [11] and in [12] was > 100 µM (inactive) each time. For the same compound, the GI50 in assay [13] was > 100 µM (inactive); in assay [14], > 100 µM (inactive); in assay [15], > 100 µM (inactive); in [16] it was > 100 µM (inactive); in assay [17] it was 29 µM (inactive); in assay [18] it was > 100 µM (inactive). Moreover, the GI50 in assay [19] was > 100 µM (inactive).
`Cc1cc(=O)n2nc(CSc3nnc(S)s3)sc2n1`: the GI50 in assay [1], in [2], in [3], in [4], in assay [5] and in assay [6] was > 100 µM (inactive) each time. Also, the GI50 in [7], in assay [8], in assay [9], in assay [10], in [11] and in [12] was > 100 µM (inactive) throughout. Also, the GI50 in [13], in [14], in assay [15], in assay [16], in assay [17] and in [18] was > 100 µM (inactive) in each case. For the same compound, the GI50 in assay [19] is > 100 µM (inactive).
Turning to `Nc1ccc(S(=O)(=O)NCc2nccs2)cc1`, the GI50 is 30.5 µM (inactive) in assay [1]; 18.2 µM (inactive) in [2]; 22.4 µM (inactive) in [3]; 17.3 µM (inactive) in assay [4]; 23.2 µM (inactive) in assay [5]; 18.8 µM (inactive) in assay [6]. The GI50 in assay [7] was 34 µM (inactive); in assay [8] it was 19 µM (inactive); in assay [9] it was 18.1 µM (inactive); in assay [10], 17.5 µM (inactive); in assay [11], 22.2 µM (inactive); in assay [12] it was 23.2 µM (inactive). Besides, the GI50 in assay [13] is 23.5 µM (inactive); in assay [14] it was 29 µM (inactive); in assay [15] it was 22.3 µM (inactive); in assay [16], 36.8 µM (inactive); in [17], 32 µM (inactive); in assay [18] it was 17.9 µM (inactive). Moreover, the GI50 in assay [19] was 32.7 µM (inactive).
On to `C[N+](C)(C)CC1Cc2ccccc2C1=O` (centres undefined), for which the GI50 in [1] is 1.87 µM (inactive); in [2], 1.66 µM (inactive); in [3], > 10 µM (inactive); in [4], > 10 µM (inactive); in assay [5], 1.71 µM (inactive); in [6], 3.91 µM (inactive). Further, the GI50 was > 5.81 µM (inactive) in [7]; 1.72 µM (inactive) in [8]; 5.58 µM (inactive) in assay [9]; > 10 µM (inactive) in assay [10]; > 10 µM (inactive) in assay [11]; > 10 µM (inactive) in [12]. For the same compound, the GI50 in assay [13] was 1.4 µM (inactive); in assay [14] it was > 10 µM (inactive); in assay [15], 3.72 µM (inactive); in [16], > 10 µM (inactive); in assay [17], > 10 µM (inactive); in [18], > 10 µM (inactive). Besides, in [19], the GI50 is 1.89 µM (inactive).
`CNC(=O)CNC(=O)CCC(=O)N(C)C`: the GI50 in [1], in assay [2], in [3], in assay [4], in assay [5] and in assay [6] was > 100 µM (inactive) each time. The GI50 in assay [7], in [8], in assay [9], in assay [10], in assay [11] and in assay [12] was > 100 µM (inactive) in each case. The GI50 in assay [13], in [14], in assay [15], in [16], in [17] and in assay [18] was > 100 µM (inactive) each time. Moreover, the GI50 in [19] was > 100 µM (inactive).
With `COc1cccc(C2c3cc4c(cc3OC(O)C2C)OCO4)c1OC` (centres undefined), the GI50 is 3.64 µM (inactive) in assay [1]; 2.61 µM (inactive) in assay [2]; 14.4 µM (inactive) in [3]; 20.1 µM (inactive) in [4]; 2.16 µM (inactive) in assay [5]; 1.66 µM (inactive) in [6]. In addition, the GI50 is 2.79 µM (inactive) in assay [7]; 2.35 µM (inactive) in assay [8]; 13.3 µM (inactive) in [9]; 13.9 µM (inactive) in [10]; 2.51 µM (inactive) in assay [11]; 2.36 µM (inactive) in assay [12]. Also, the GI50 in [13] was 2.7 µM (inactive); in [14], 2.98 µM (inactive); in assay [15] it was 8.67 µM (inactive); in [16], 17.4 µM (inactive); in [17] it was 3.26 µM (inactive); in assay [18], 16.2 µM (inactive). For the same compound, the GI50 in [19] was 3.06 µM (inactive).
For `OCCNC1c2cc(Cl)ccc2-c2c(Cl)cc(Cl)cc21` (centres undefined), the GI50 is 30.3 µM (inactive) in assay [1]; 23.2 µM (inactive) in assay [2]; 39.2 µM (inactive) in [3]; 11.6 µM (inactive) in assay [4]; 22.1 µM (inactive) in assay [5]; 20.3 µM (inactive) in assay [6]. For the same compound, the GI50 was 29.8 µM (inactive) in assay [7]; 26.5 µM (inactive) in assay [8]; 92.3 µM (inactive) in assay [9]; 34 µM (inactive) in assay [10]; > 100 µM (inactive) in assay [11]; 37.9 µM (inactive) in assay [12]. Moreover, the GI50 was 33 µM (inactive) in assay [13]; > 100 µM (inactive) in assay [14]; 26.9 µM (inactive) in [15]; 41.2 µM (inactive) in assay [16]; 35.6 µM (inactive) in assay [17]; 42.2 µM (inactive) in assay [18]. Moreover, the GI50 in assay [19] was 28.6 µM (inactive).
For `CCOC(=O)C(=O)C(=O)NN(C)C1=NCCN1`, the GI50 in assay [1], in assay [2], in assay [3], in assay [4], in assay [5] and in [6] was > 100 µM (inactive) throughout. Further, the GI50 in assay [7], in [8], in assay [9], in [10], in [11] and in assay [12] was > 100 µM (inactive) throughout. In addition, the GI50 in [13], in assay [14], in assay [15], in assay [16], in assay [17] and in [18] was > 100 µM (inactive) throughout. In addition, the GI50 in assay [19] is > 100 µM (inactive).
`CSc1ccc(/C=C/C(=O)c2nc3ccccc3[nH]2)cc1`: the GI50 in [1] was 9.29 µM (inactive); in assay [2] it was 3.49 µM (inactive); in [3] it was 23.6 µM (inactive); in [4], 17.8 µM (inactive); in [5] it was 3.02 µM (inactive); in assay [6], 77.1 µM (inactive). The GI50 in assay [7] was 16.6 µM (inactive); in assay [8] it was 12.7 µM (inactive); in assay [9] it was 31.6 µM (inactive); in assay [10], 14.2 µM (inactive); in assay [11], 13.6 µM (inactive); in assay [12] it was 13.2 µM (inactive). The GI50 in assay [13] is 4.41 µM (inactive); in assay [14], 1.87 µM (inactive); in assay [15], 7.36 µM (inactive); in assay [16], 24.3 µM (inactive); in [17] it was 24.3 µM (inactive); in [18], 25.2 µM (inactive). For the same compound, in assay [19], the GI50 was 37.2 µM (inactive).
`Nn1c(Cc2ccc([N+](=O)[O-])cc2)n[nH]c1=O`: the GI50 in assay [1], in [2], in [3], in assay [4], in assay [5] and in assay [6] was > 100 µM (inactive) in each case. For the same compound, the GI50 in [7], in [8], in [9], in assay [10], in assay [11] and in [12] was > 100 µM (inactive) each time. For the same compound, the GI50 in assay [13], in assay [14], in assay [15], in [16], in assay [17] and in [18] was > 100 µM (inactive) in each case. In assay [19], the GI50 is > 100 µM (inactive).
In the case of `Cc1cc(O)c2cc3c(O)c(O)ccc3cc2c1`, the GI50 was 0.53 µM (active) in assay [1]; 1.27 µM (inactive) in assay [2]; 1.24 µM (inactive) in assay [3]; 2.12 µM (inactive) in assay [4]; 1.03 µM (active) in [5]; 2.61 µM (inactive) in assay [6]. Also, the GI50 was 0.46 µM (active) in assay [7]; 0.494 µM (active) in assay [8]; 9.51 µM (inactive) in [9]; 1.52 µM (inactive) in assay [10]; 1.23 µM (inactive) in [11]; 0.488 µM (active) in assay [12]. Also, the GI50 in assay [13] is 1.04 µM (active); in assay [14], 3.91 µM (inactive); in assay [15], 2.18 µM (inactive); in assay [16], 1.29 µM (inactive); in [17] it was 0.619 µM (active); in assay [18], 3.17 µM (inactive). Moreover, the GI50 in assay [19] was 0.743 µM (active).
